Data as given in ChEMBL document CHEMBL5058645, “Data for DCP probe JNJ-6204” (2022).
Active and inactive are the calls of the source. No cut-off for these calls is given here.

Experiments:
[1] = GPCRScan assay: inhibition of GABA/PBR; design: species or system Rattus norvegicus; radioligand conc. used [nm] 0.3 – 2.0, parental cells brain tissue
[2] = target: T1, Casein kinase I isoform epsilon (Homo sapiens, UniProt P49674); experiment: ADP-Glo
[3] = target: 5'-AMP-activated protein kinase catalytic subunit alpha-2 (Homo sapiens, UniProt P54646); experiment: AMPKalpha2(h) Kinase panel
[4] = target: Casein kinase I isoform alpha (Homo sapiens, UniProt P48729); experiment: CK1alpha(h) Kinase panel
[5] = target: T1, Casein kinase I isoform epsilon; experiment: CK1epsilon(h) Kinase panel
[6] = target: Serine/threonine-protein kinase DCLK2 (Homo sapiens, UniProt Q8N568); experiment: DCAMKL2(h) Kinase panel
[7] = target: Macrophage colony-stimulating factor 1 receptor (Homo sapiens, UniProt P07333); experiment: Fms(h) Kinase panel
[8] = target: Serine/threonine-protein kinase 38-like (Homo sapiens, UniProt Q9Y2H1); experiment: NDR2(h) Kinase panel
[9] = target: Mitogen-activated protein kinase 14 (Homo sapiens, UniProt Q16539); experiment: SAPK2a(h) Kinase panel
[10] = target: Mitogen-activated protein kinase 11 (Homo sapiens, UniProt Q15759); experiment: SAPK2b(h) Kinase panel
[11] = target: TGF-beta receptor type-1 (Homo sapiens, UniProt P36897); experiment: TGFBR1(h) Kinase panel
[12] = target: TRAF2 and NCK-interacting protein kinase (Homo sapiens, UniProt Q9UKE5); experiment: TNIK(h) Kinase panel
[13] = target: 5-hydroxytryptamine receptor 1A (Homo sapiens, UniProt P08908); experiment: GPCRScan assay: inhibition of 5-HT1A; design: radioligand conc. used [nm] 0.5 – 1.0, parental cells stable CHO
[14] = target: T2, D(3) dopamine receptor (Homo sapiens, UniProt P35462); experiment: GPCRScan assay: inhibition of D3; design: radioligand conc. used [nm] 0.5 – 1.8, parental cells HEKT
[15] = target: T3, Sodium-dependent dopamine transporter (Homo sapiens, UniProt Q01959); experiment: GPCRScan assay: inhibition of DAT; design: radioligand conc. used [nm] 3.6 – 16.0, parental cells stable HEK
[16] = target: Casein kinase I isoform delta (Homo sapiens, UniProt P48730); experiment: BRET whole cell binding assay
[17] = target: 5-hydroxytryptamine receptor 1B (Homo sapiens) (UniProt P28222); conditions: Compound concentration 10.0 uM
[18] = target: 5-hydroxytryptamine receptor 1D (Homo sapiens) (UniProt P28221); conditions: Compound concentration 10.0 uM
[19] = target: 5-hydroxytryptamine receptor 1E (Homo sapiens) (UniProt P28566); conditions: Compound concentration 10.0 uM
[20] = target: 5-hydroxytryptamine receptor 2A (Homo sapiens) (UniProt P28223); conditions: Compound concentration 10.0 uM
[21] = target: 5-hydroxytryptamine receptor 2B (Homo sapiens) (UniProt P41595); conditions: Compound concentration 10.0 uM
[22] = target: 5-hydroxytryptamine receptor 2C (Homo sapiens) (UniProt P28335); conditions: Compound concentration 10.0 uM
[23] = target: 5-hydroxytryptamine receptor 3A (Homo sapiens) (UniProt P46098); conditions: Compound concentration 10.0 uM
[24] = target: 5-hydroxytryptamine receptor 5A (Homo sapiens) (UniProt P47898); conditions: Compound concentration 10.0 uM
[25] = target: 5-hydroxytryptamine receptor 7 (Homo sapiens) (UniProt P34969); conditions: Compound concentration 10.0 uM
[26] = target: D(1A) dopamine receptor (Homo sapiens) (UniProt P21728); conditions: Compound concentration 10.0 uM
[27] = target: D(2) dopamine receptor (Homo sapiens) (UniProt P14416); conditions: Compound concentration 10.0 uM
[28] = target: T2, D(3) dopamine receptor; conditions: Compound concentration 10.0 uM
[29] = target: D(4) dopamine receptor (Homo sapiens) (UniProt P21917); conditions: Compound concentration 10.0 uM
[30] = target: D(1B) dopamine receptor (Homo sapiens) (UniProt P21918); conditions: Compound concentration 10.0 uM
[31] = target: Sodium-dependent serotonin transporter (Homo sapiens) (UniProt P31645); conditions: Compound concentration 10.0 uM
[32] = target: Sodium-dependent noradrenaline transporter (Homo sapiens) (UniProt P23975); conditions: Compound concentration 10.0 uM
[33] = target: T3, Sodium-dependent dopamine transporter; conditions: Compound concentration 10.0 uM
[34] = target: Mu-type opioid receptor (Homo sapiens) (UniProt P35372); conditions: Compound concentration 10.0 uM
[35] = target: Delta-type opioid receptor (Homo sapiens) (UniProt P41143); conditions: Compound concentration 10.0 uM
[36] = target: Kappa-type opioid receptor (Homo sapiens) (UniProt P41145); conditions: Compound concentration 10.0 uM
[37] = target: Histamine H1 receptor (Homo sapiens) (UniProt P35367); conditions: Compound concentration 10.0 uM
[38] = target: Histamine H2 receptor (Homo sapiens) (UniProt P25021); conditions: Compound concentration 10.0 uM
[39] = target: Histamine H3 receptor (Homo sapiens) (UniProt Q9Y5N1); conditions: Compound concentration 10.0 uM
[40] = target: Histamine H4 receptor (Homo sapiens) (UniProt Q9H3N8); conditions: Compound concentration 10.0 uM
[41] = target: Alpha-1B adrenergic receptor (Homo sapiens) (UniProt P35368); conditions: Compound concentration 10.0 uM
[42] = target: Alpha-2A adrenergic receptor (Homo sapiens) (UniProt P08913); conditions: Compound concentration 10.0 uM
[43] = target: Alpha-2B adrenergic receptor (Homo sapiens) (UniProt P18089); conditions: Compound concentration 10.0 uM
[44] = target: Alpha-2C adrenergic receptor (Homo sapiens) (UniProt P18825); conditions: Compound concentration 10.0 uM
[45] = target: Beta-1 adrenergic receptor (Homo sapiens) (UniProt P08588); conditions: Compound concentration 10.0 uM
[46] = target: Muscarinic acetylcholine receptor M1 (Homo sapiens) (UniProt P11229); conditions: Compound concentration 10.0 uM
[47] = target: Muscarinic acetylcholine receptor M2 (Homo sapiens) (UniProt P08172); conditions: Compound concentration 10.0 uM
[48] = target: Muscarinic acetylcholine receptor M3 (Homo sapiens) (UniProt P20309); conditions: Compound concentration 10.0 uM
[49] = target: Muscarinic acetylcholine receptor M4 (Homo sapiens) (UniProt P08173); conditions: Compound concentration 10.0 uM
[50] = target: Muscarinic acetylcholine receptor M5 (Homo sapiens) (UniProt P08912); conditions: Compound concentration 10.0 uM
[51] = target: Beta-3 adrenergic receptor (Homo sapiens) (UniProt P13945); conditions: Compound concentration 10.0 uM
[52] = target: GABA-A receptor; anion channel (Rattus norvegicus) (UniProt O09028+P15431+P18506+P18508+P19969+P20236+P23574+P23576+P28471+P28473+P30191+P62813+P63079+P63138+Q91ZM7+Q9ES14); conditions: Compound concentration 10.0 uM
[53] = target: Alpha-1D adrenergic receptor (Homo sapiens) (UniProt P25100); conditions: Compound concentration 10.0 uM
[54] = target: Sigma intracellular receptor 2 (Homo sapiens) (UniProt Q5BJF2); conditions: Compound concentration 10.0 uM
[55] = target: Sigma non-opioid intracellular receptor 1 (Homo sapiens) (UniProt Q99720); conditions: Compound concentration 10.0 uM

T3 sequence (Q01959 whole entry, canonical isoform): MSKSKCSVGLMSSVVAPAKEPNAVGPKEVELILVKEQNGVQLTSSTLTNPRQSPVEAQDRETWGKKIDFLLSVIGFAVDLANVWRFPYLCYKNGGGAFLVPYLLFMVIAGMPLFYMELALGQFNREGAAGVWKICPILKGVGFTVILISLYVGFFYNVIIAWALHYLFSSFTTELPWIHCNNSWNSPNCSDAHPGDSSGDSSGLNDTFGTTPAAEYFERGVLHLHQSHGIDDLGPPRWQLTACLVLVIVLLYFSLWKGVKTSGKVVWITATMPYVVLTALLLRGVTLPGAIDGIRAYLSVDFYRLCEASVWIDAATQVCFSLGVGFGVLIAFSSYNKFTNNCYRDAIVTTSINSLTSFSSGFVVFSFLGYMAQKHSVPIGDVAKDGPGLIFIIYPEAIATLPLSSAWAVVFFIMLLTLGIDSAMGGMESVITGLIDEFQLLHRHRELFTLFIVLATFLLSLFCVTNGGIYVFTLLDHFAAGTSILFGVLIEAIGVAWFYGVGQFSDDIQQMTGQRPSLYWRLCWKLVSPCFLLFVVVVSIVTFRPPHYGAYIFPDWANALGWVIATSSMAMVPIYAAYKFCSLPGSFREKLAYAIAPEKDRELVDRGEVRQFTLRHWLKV
T2 sequence (P35462 whole entry): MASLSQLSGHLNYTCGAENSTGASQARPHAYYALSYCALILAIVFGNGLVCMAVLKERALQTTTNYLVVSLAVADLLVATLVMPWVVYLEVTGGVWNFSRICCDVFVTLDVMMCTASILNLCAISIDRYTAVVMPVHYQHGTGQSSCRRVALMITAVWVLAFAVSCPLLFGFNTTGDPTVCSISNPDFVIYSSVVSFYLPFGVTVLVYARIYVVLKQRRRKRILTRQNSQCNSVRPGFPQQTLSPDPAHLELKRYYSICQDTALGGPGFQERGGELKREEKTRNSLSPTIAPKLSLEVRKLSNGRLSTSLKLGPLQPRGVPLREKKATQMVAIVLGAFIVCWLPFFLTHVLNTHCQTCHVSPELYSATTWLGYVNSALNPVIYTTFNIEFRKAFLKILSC
T1 sequence (P49674 whole entry, canonical isoform): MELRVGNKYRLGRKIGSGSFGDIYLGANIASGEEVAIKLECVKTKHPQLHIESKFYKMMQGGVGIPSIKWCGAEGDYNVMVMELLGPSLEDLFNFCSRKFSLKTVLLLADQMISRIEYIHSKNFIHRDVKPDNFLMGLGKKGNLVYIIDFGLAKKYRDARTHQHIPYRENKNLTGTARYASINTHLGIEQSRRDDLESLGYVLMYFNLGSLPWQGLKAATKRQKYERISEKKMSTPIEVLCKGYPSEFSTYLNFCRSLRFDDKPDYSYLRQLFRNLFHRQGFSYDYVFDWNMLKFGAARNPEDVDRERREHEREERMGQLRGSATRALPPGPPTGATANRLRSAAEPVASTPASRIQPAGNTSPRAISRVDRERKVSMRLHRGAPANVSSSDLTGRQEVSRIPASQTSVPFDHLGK
Chain of 5-hydroxytryptamine receptor 2B (Homo sapiens) (P41595 whole entry): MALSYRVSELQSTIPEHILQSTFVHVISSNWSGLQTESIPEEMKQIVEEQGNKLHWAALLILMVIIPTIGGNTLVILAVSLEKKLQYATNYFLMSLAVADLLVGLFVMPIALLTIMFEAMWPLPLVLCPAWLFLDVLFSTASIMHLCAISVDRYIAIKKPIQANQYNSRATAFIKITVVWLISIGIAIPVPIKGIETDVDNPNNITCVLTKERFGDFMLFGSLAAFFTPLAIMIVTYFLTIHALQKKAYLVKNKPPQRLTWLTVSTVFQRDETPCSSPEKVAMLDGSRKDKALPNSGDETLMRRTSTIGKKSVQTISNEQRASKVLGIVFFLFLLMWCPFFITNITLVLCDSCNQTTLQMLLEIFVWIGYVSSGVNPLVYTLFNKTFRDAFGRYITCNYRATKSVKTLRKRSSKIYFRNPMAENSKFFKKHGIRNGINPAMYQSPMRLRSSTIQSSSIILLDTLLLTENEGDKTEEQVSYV
Chain of Alpha-2C adrenergic receptor (Homo sapiens) (P18825 whole entry): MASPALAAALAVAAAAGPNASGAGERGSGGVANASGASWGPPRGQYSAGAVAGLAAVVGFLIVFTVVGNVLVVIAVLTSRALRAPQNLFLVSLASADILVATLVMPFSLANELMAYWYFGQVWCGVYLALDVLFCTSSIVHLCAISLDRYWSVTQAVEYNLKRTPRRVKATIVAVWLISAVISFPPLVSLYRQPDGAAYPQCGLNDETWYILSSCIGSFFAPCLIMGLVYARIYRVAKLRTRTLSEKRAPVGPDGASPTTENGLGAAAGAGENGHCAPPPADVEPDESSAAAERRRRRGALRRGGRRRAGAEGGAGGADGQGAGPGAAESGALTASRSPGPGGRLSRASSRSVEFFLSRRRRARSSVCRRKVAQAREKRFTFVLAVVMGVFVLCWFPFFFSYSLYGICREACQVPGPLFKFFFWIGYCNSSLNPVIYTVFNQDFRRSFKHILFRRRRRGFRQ
Chain of Sodium-dependent noradrenaline transporter (Homo sapiens) (P23975 whole entry): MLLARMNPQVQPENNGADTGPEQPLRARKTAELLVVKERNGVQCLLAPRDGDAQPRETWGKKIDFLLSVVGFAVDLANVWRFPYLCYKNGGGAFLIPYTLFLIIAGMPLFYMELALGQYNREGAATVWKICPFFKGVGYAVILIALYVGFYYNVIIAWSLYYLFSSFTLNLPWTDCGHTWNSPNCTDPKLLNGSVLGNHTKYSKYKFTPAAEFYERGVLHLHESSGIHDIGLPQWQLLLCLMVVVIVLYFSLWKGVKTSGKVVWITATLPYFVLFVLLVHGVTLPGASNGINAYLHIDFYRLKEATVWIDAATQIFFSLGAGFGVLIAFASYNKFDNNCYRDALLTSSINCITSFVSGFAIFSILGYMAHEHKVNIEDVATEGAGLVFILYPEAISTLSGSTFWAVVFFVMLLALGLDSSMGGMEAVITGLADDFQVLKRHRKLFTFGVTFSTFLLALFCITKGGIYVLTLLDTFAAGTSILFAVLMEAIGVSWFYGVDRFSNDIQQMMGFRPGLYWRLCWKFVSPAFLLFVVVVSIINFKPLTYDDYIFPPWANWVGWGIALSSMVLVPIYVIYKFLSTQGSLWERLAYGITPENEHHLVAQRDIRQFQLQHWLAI
Chain of 5-hydroxytryptamine receptor 3A (Homo sapiens) (P46098 whole entry): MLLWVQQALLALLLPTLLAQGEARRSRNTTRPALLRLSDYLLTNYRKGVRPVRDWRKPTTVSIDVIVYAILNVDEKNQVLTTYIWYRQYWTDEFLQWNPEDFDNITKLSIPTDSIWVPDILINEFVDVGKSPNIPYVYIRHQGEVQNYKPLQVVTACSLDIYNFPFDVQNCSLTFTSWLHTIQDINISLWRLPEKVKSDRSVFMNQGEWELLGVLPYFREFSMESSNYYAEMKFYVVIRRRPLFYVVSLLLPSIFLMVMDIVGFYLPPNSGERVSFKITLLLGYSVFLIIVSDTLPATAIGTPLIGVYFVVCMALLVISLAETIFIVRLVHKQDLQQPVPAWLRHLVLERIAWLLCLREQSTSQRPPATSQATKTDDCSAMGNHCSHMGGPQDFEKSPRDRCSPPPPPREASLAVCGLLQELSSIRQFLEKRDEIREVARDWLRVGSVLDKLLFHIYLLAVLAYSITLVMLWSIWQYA
Chain of D(2) dopamine receptor (Homo sapiens) (P14416 whole entry): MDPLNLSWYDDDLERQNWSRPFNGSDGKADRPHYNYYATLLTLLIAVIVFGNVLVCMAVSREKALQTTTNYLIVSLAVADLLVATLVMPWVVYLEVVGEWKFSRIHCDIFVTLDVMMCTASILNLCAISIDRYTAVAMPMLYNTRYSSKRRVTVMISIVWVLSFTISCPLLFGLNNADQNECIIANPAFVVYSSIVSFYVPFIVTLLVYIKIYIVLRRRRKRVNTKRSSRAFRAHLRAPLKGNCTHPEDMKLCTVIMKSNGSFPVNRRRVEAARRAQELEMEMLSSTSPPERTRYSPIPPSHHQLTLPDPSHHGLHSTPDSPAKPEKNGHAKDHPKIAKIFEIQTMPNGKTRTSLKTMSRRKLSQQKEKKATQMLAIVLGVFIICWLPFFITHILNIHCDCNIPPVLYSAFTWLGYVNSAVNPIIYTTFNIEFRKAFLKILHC
Chain of 5-hydroxytryptamine receptor 1A (P08908 whole entry): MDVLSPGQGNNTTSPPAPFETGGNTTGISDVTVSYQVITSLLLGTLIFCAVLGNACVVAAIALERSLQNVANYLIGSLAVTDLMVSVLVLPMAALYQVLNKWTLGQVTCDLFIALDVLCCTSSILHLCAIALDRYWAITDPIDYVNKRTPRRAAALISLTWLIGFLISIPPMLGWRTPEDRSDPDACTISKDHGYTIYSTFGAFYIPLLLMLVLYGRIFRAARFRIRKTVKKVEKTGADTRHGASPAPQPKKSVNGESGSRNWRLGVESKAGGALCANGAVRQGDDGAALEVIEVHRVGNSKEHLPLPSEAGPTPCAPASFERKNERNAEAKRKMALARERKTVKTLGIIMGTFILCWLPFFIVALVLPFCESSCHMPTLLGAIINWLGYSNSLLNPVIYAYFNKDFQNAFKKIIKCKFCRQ
Chain of TGF-beta receptor type-1 (P36897 whole entry): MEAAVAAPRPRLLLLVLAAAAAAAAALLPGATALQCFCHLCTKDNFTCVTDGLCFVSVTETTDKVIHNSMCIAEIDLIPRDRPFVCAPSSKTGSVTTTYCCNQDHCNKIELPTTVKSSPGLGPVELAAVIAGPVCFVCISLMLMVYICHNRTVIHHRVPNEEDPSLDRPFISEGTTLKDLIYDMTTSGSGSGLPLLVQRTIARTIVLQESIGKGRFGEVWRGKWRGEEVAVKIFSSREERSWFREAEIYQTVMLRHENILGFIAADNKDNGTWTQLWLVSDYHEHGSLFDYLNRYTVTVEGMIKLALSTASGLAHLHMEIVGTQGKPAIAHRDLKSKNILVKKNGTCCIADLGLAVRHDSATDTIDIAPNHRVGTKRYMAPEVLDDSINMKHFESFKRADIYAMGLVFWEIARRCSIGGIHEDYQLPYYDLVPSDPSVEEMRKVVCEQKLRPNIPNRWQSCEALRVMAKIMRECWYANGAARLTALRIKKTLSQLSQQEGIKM

## [2H]C([2H])([2H])C1(C([2H])([2H])[2H])Cn2nc(-c3ccc(F)cn3)c(-c3ccnc4[nH]ncc34)c2CO1
[1]
  Ki: 4.53 µM
  pKi: 5.34
[2]
  IC50: 0.137 µM (active)
[3]
  IC50: > 10 µM
[4]
  IC50: 0.419 µM
[5]
  IC50: 0.137 µM
[6]
  IC50: > 10 µM
[7]
  IC50: > 10 µM
[8]
  IC50: > 10 µM
[9]
  IC50: > 10 µM
[10]
  IC50: > 10 µM
[11]
  IC50: > 10 µM
[12]
  IC50: 1.7 µM

## Cn1cc2c(-c3c(-c4ccc(F)cn4)nn4c3COC(C)(C)C4)ccnc2n1
[13]
  Ki: 7.66 µM
[14]
  Ki: 8.63 µM
[15]; read-out: Ki
  Ki: 7.22 µM
[15]; read-out: pKi (converted)
  Ki: 7.24 µM
[16]
  IC50: > 10 µM (not active)
[17]
  inhibition: 3.69%
[18]
  inhibition: 11.3%
[19]
  inhibition: 11%
[20]
  inhibition: 0.96%
[21]
  inhibition: 9.41%
[22]
  inhibition: 2.17%
[23]
  inhibition: 1.67%
[24]
  inhibition: 5.31%
[25]
  inhibition: 2.11%
[26]
  inhibition: 5.63%
[27]
  inhibition: 16.9%
[28]
  inhibition: 71%
[29]
  inhibition: 48.1%
[30]
  inhibition: 3.57%
[31]
  inhibition: -2.06%
[32]
  inhibition: 3.24%
[33]
  inhibition: 72.5%
[34]
  inhibition: -0.34%
[35]
  inhibition: -4.05%
[36]
  inhibition: 5.15%
[37]
  inhibition: 12.5%
[38]
  inhibition: -7.88%
[39]
  inhibition: -2.3%
[40]
  inhibition: 31.6%
[41]
  inhibition: 35.2%
[42]
  inhibition: 19.6%
[43]
  inhibition: 9.43%
[44]
  inhibition: -5.28%
[45]
  inhibition: 14.9%
[46]
  inhibition: 14.2%
[47]
  inhibition: -5.08%
[48]
  inhibition: 0.71%
[49]
  inhibition: 0.72%
[50]
  inhibition: 12.5%
[51]
  inhibition: 12.3%
[52]
  inhibition: 18.2%
[53]
  inhibition: 12.7%
[54]
  inhibition: -2.71%
[55]
  inhibition: 13%
